This note sets out measurements from the SangsterLogP compilation.

The series in a line: method code SF, from DOI: 10.1246/bcsj.55.1489. The conditions noted are these: pH 7.0.
As a reminder, the logD is the decadic logarithm of the distribution of all forms, ionised or not, between an organic phase and buffer at a given pH. A lower logD goes with lower lipophilicity. The compound `COc1cc(-n2nc(C)cc2OC)ncn1` yielded a logD of 1.53.

Turning to `COc1cc(-n2c(=O)cc(C)n2C)ncn1`, the logD was 0.3. As for `COc1cc(C)nn1-c1nc(C)cc(C)n1`, the logD came to 0.73. For `COc1cc(C)n(-c2ccncn2)n1` the value was 2.21; for `COc1cc(-n2c(=O)cc(C)n2C)nc(C)n1`, 0.7; for `COc1cc(C)n(-c2nc(C)cc(C)n2)n1`, 1.82. `Cc1cc(-n2c(=O)cc(C)n2C)nc(C)n1`: the logD is 0.24. As to `COc1nc(C)cc(-n2[nH]c(C)cc2=O)n1`, the logD stood at 1.03. For `COc1cc(C)nn1-c1ccncn1` the value was 0.5; for `COc1cc(-n2nc(C)cc2OC)nc(OC)n1`, 1.86; for `COc1ccnc(-n2nc(C)cc2OC)n1`, 1.01. With `COc1cc(-n2c(C)cc(=O)n2C)nc(C)n1`, the pH-dependent lipophilicity (logD) came out at 0.38. `Cc1cc(C)nc(-n2c(C)cc(=O)n2C)n1` gave a pH-dependent lipophilicity (logD) of 0.51.
